Patent US6355811B1, “Polyoxypropylenepolyethylene vitamin E and preparation thereof” (priority 1998, dated 2002)

Tests used:
[1] = Anti-oxidation activity: peroxide value of linoleic acid with added sample; details: sample 0.5% in linoleic acid, stored at 40° C.
Protocol: An examination was made of the anti-oxidation activity of the polyoxypropylenepolyoxyethylene vitamin E, using linoleic acid. The linoleic acid used was a reagent purchased from Sigma, U.S.A., comprising linoleic acid 75% and linolenic acid 12.5%.
The polyoxypropylenepolyoxyethylene vitamin E(1) prepared in Example I was added at an amount of 0.5% in the linoleic acid while vitamin E, vitamin E acetate, polyoxyethylene (12EO) vitamin E, polyoxyethylene (20EO) sorbitan monostearate (TWEEN-60), and polyoxyethylene (12EO) nonylphenylether (Igepal-CO880) were also used as references. These samples were stored in an incubator maintained at 40° C. At two days and ten days after the incubation, a peroxide value was determined for each sample. In detail, in a 250 ml Erlenmeyer flask was placed 1.0 g of each of the samples, and 10 ml of chloroform were added to dissolve the sample, after which 15 ml of glacial acetic acid and 1 ml of saturated potassium iodide solution were added and a stopper was put in the flask. After being vigorously shaken, the flask was allowed to stand in a dark place for 5 min. Thereafter, the flask was added with 75 ml of distilled water and vigorously shaken. Free iodine was titrated with a 0.01 N sodium thiosulfate solution, using a starch solution as an indicator. The point at which the solution became colorless was regarded as the end point. The peroxide value was calculated as follows: [formula]
S: Amount of 0.01 N sodium thiosulfate solution consumed by sample (ml)
B: Amount of 0.01 N sodium thiosulfate solution consumed in blank test tube (ml)
F: Factor of 0.01 N sodium thiosulfate solution

rabbits = experiment: Primary eye irritation test according to Draize; assay type: in vivo
Protocol: In order to evaluate the safety of the novel polyoxypropylenepolyoxyethylene vitamin E, a primary eye irritation test was conducted on rabbits as taught by Draize. The polyoxypropylenepolyoxyethylene vitamin E (5) prepared in Example V, polyoxyethylene (12EO) nonylphenylether and polyoxyethylene (20EO) sorbitan monostearate each was diluted with a 10% aqueous glycerine solution to give a 10% sample solution. This test sample was dropped onto one eye of each of 6 rabbits weighing 2-3 kg while the other eye was used as a control. 24 hours later, the average scores were recorded according to the Draize scoring for ocular lesions. If lesions were present, the time was extended; otherwise, observation was ceased.

human body = experiment: Patch test, Finn Chamber method; assay type: in vivo; details: human brachium, ICDRG standard
Protocol: In order to confirm non-toxicity of the polyoxypropylenepolyoxyethylene vitamin E according to the present invention, a patch test was conducted on the human body according to the Finn Chamber method. The subjects of this test were all females 15-35 years old. A sample material was dropped onto the brachium of each of the subjects and a dermicel tape was bonded thereto. The skin irritations were evaluated as a response rate (%) according to an International Contact Dermatitis Research Group (ICDRG) standard after 24 or 48 hour.

[2] = Foaming ability and foam stability, dynamic foam test; assay type: physicochemical; details: 20° C.; for Foam Stability: 0.1% solution in water, foam at three minutes after stirring; for Foaming Ability: 0.1% solution in water, 1,000 rpm, 1 min
Protocol: The foaming ability and foam stability were determined according to a dynamic foam test. First, in a 2 L scaled cylinder with an inner diameter of 10 cm were charged 40 ml of a 0.1% solution of each sample in water and the solution was stirred at 1,000 rpm 20° C. for 1 min with an agimixer. The height of the foam layer thus formed was regarded as foaming ability while the ratio of the volume of the foam layer formed immediately after the stirring to the same maintained at three minutes after the stirring, was denoted as foam stability.

[3] = Surface tension by the du Nuoy method; assay type: physicochemical; details: 0.1% aqueous solution, 20° C.
Protocol: At 20° C., 0.1% solutions of samples in water were measured for surface tension according to the du Nuoy method with the aid of a surface tension balance manufactured by Fisher Scientific.

| Compound | Peroxide Values After 2 days [1] | Peroxide Values After 10 days [1] | Eye irritation, Avg. Values (Draize scoring for ocular lesions) (rabbits; 10% sample solution in 10% aqueous glycerine, rabbit eye, 24 hours) | Response Rate, 24 h (human body) | Response Rate, 48 h (human body) | Foam Stability [2] | Foaming Ability [2] | Surface Tension [3] | Eye irritation, Avg. Values (Draize scoring for ocular lesions) (rabbits; rabbit, in vivo) |
| --- | --- | --- | --- | --- | --- | --- | --- | --- | --- |
| polyoxyethylene (20EO) sorbitan monostearate [20EO sorbitan mono stearate] | 25.0 | 126.6 | 0.16 | 0.6% | 0.0% | – | – | – | – |
| CC(=O)Oc1c(C)c(C)c2c(c1C)CCC(C)(CCC[C@H](C)CCC[C@H](C)CCCC(C)C)O2 (stereo partly shown) [Acetate of vitamin E, vitamin E acetate] | 27.2 | 123.3 | – | – | – | – | – | – | – |
| polyoxyethylene (12EO) vitamin E [12EO vitamin E] | 26.0 | 124.6 | – | 1.6% | 0.8% | 46.5% | 125 cc | 56.3 dyne/cm | 0.19 |
| vitamin E | 21.6 | 58.9 | – | – | – | – | – | – | – |
| polyoxyethylene (24EO) cholesterol [24 EO Cholesterol] | – | – | – | – | – | 89.6% | 246 cc | 38.4 dyne/cm | – |
| polyoxyethylene (12EO) nonylphenylether [12EO nonylphenylether] | 28.9 | 178.5 | – | 2.4% | 2.0% | – | – | – | 0.35 |
